Measurements as given in patent US12435044B2, “Pyridazinone herbicides and pyridazinone intermediates used to prepare a herbicide” (FMC Corporation, priority 2018, dated 2025).

Tests used:
Type in all cases: in vivo
[1] = test system: barnyardgrass (Echinochloa crus-galli); experiment: Test B flooded paddy test; conditions: Flood, 250 g ai/ha
Method: (§1) Plant species in the flooded paddy test selected from rice (Oryza sativa), sedge, umbrella (small-flower umbrella sedge, Cyperus difformis), duck salad (Heteranthera limosa) and barnyardgrass (Echinochloa crus-galli) were grown to the 2-leaf stage for testing. At time of treatment, test pots were flooded to 3 cm above the soil surface, treated by application of test compounds directly to the paddy water, and then maintained at that water depth for the duration of the test. Treated plants and controls were maintained in a greenhouse for 13 to 15 d, after which time all species were compared to controls and visually evaluated. Plant response ratings, summarized in Table B, are based on a scale of 0 to 100 where 0 is no effect and 100 is complete control. A dash (-) response means no test result.

[2] = test system: duck salad (Heteranthera limosa); experiment: Test B flooded paddy test; conditions: Flood, 250 g ai/ha, Ducksalad
Method: as §1

rice (Oryza sativa) = experiment: Test B flooded paddy test; conditions: Flood, 250 g ai/ha
Method: as §1

[3] = test system: sedge, umbrella (small-flower umbrella sedge, Cyperus difformis); experiment: Test B flooded paddy test; conditions: Flood, 250 g ai/ha
Method: as §1

[4] = test system: sedge, umbrella (small-flower umbrella sedge, Cyperus difformis); experiment: Test C flooded paddy test; conditions: Flood, scale 0 to 100
Source text: as §1, with “consisted of” for “selected from”, “(transplanted and water seeded, Oryza” for “(Oryza”, “ducksalad” for “duck salad”, “limosa), Bulrush, Japanese (Scirpus juncoides)” for “limosa)”, “crus-galli)” for “crus-galli) were”, “C” for “B,”

[5] = test system: barley, spring (Hordeum vulgare); experiment: Test D pre-/postemergence controlled growth environment test
Source text: (§2) Seeds of plant species selected from blackgrass (Alopecurus myosuroides), galium (catchweed bedstraw, Galium aparine), kochia (Kochia scoparia), oilseed rape (Brassica napus), barley, spring (Hordeum vulgare), wheat, spring (Triticum aestivum), oat, wild (Avena fatua), barley, winter (Hordeum vulgare) and wheat, winter (Triticum aestivum) were planted into a silt loam soil and treated preemergence with test chemicals formulated in a non-phytotoxic solvent mixture which included a surfactant.
(§3) At the same time, plants selected from these crop and weed species and also bluegrass (annual bluegrass, Poa annua), canarygrass (littleseed canarygrass, Phalaris minor), chickweed (common chickweed, Stellaria media), bromegrass, downy (downy bromegrass, Bromus tectorum), field poppy (Papaver rhoeas), field violet (Viola arvensis), foxtail, green (Setaria viridis), deadnettle (henbit deadnettle, Lamium amplexicaule), ryegrass, Italian (Lolium multiflorum), lambsquarters (Chenopodium album), pigweed (Amaranthus retroflexus), chamomile (scentless chamomile, Matricaria inodora), Russian thistle (Salsola kali), speedwell (bird's-eye speedwell, Veronica persica), buckwheat, wild (Polygonum convolvulus), mustard, wild (Sinapis arvensis), radish, wild (Raphanus raphanistrum), windgrass (Apera spica-venti), geranium, cutleaf (Geranium dissectum) and Canada thistle (Cirsium arvense) were planted in pots containing Redi-Earth® planting medium (Scotts Company, 14111 Scottslawn Road, Marysville, Ohio 43041) comprising spaghnum peat moss, vermiculite, wetting agent and starter nutrients and treated with postemergence applications of the test chemicals formulated in the same manner. Plants ranged in height from 2 to 18 cm (1- to 4-leaf stage). Treated plants and controls were maintained in a controlled growth environment for 14 to 21 d after which time all species were compared to controls and visually evaluated. Plant response ratings, summarized in Table D, are based on a scale of 0 to 100 where 0 is no effect and 100 is complete control. A dash (-) response means no test result.

[6] = test system: barley, winter (Hordeum vulgare); experiment: as above
Source text: as §2, §3

[7] = test system: blackgrass (Alopecurus myosuroides); experiment: as above
Source text: as §2, §3

[8] = test system: galium (catchweed bedstraw, Galium aparine); experiment: as above
Source text: as §2, §3

kochia (Kochia scoparia) = experiment: as above
Source text: as §2, §3

oat, wild (Avena fatua) = experiment: as above
Source text: as §2, §3

[9] = test system: oilseed rape (Brassica napus); experiment: as above
Source text: as §2, §3

[10] = test system: wheat, spring (Triticum aestivum); experiment: as above
Source text: as §2, §3

[11] = test system: wheat, winter (Triticum aestivum); experiment: as above
Source text: as §2, §3

## Cc1cc(Cl)c2ccccc2c1-c1c(O)c(Cl)nn(C)c1=O [Cpd. No. 65]
[1]
  Plant response rating (0 to 100 scale): 40
[2]
  Plant response rating (0 to 100 scale): 80
Rice (Oryza sativa)
  Plant response rating (0 to 100 scale): 20
[3]
  Plant response rating (0 to 100 scale): 90
[4]; 31 g ai/ha
  Plant response rating, Sedge, Umbrella: 95
[4]; 62 g ai/ha
  Plant response rating, Sedge, Umbrella: 100
[4]; 125 g ai/ha
  Plant response rating, Sedge, Umbrella: 100
[4]; 250 g ai/ha
  Plant response rating, Sedge, Umbrella: 100
[5]; Postemergence, 16 g ai/ha
  Plant response rating, Barley, Spring: 57
[5]; Postemergence, 31 g ai/ha
  Plant response rating, Barley, Spring: 78
[5]; Postemergence, 62 g ai/ha
  Plant response rating, Barley, Spring: 88
[5]; Postemergence, 125 g ai/ha
  Plant response rating, Barley, Spring: 93
[5]; Preemergence, 16 g ai/ha
  Plant response rating, Barley, Spring: 0
[5]; Preemergence, 31 g ai/ha
  Plant response rating, Barley, Spring: 3
[5]; Preemergence, 62 g ai/ha
  Plant response rating, Barley, Spring: 5
[5]; Preemergence, 125 g ai/ha
  Plant response rating, Barley, Spring: 73
[6]; Postemergence, 16 g ai/ha
  Plant response rating, Barley, Winter: 60
[6]; Postemergence, 31 g ai/ha
  Plant response rating, Barley, Winter: 72
[6]; Postemergence, 62 g ai/ha
  Plant response rating, Barley, Winter: 83
[6]; Postemergence, 125 g ai/ha
  Plant response rating, Barley, Winter: 90
[6]; Preemergence, 16 g ai/ha
  Plant response rating, Barley, Winter: 0
[6]; Preemergence, 31 g ai/ha
  Plant response rating, Barley, Winter: 3
[6]; Preemergence, 62 g ai/ha
  Plant response rating, Barley, Winter: 7
[6]; Preemergence, 125 g ai/ha
  Plant response rating, Barley, Winter: 23
[7]; Postemergence, 16 g ai/ha
  Plant response rating, Blackgrass: 83
[7]; Postemergence, 31 g ai/ha
  Plant response rating, Blackgrass: 90
[7]; Postemergence, 62 g ai/ha
  Plant response rating, Blackgrass: 93
[7]; Postemergence, 125 g ai/ha
  Plant response rating, Blackgrass: 95
[7]; Preemergence, 16 g ai/ha
  Plant response rating, Blackgrass: 13
[7]; Preemergence, 31 g ai/ha
  Plant response rating, Blackgrass: 23
[7]; Preemergence, 62 g ai/ha
  Plant response rating, Blackgrass: 63
[7]; Preemergence, 125 g ai/ha
  Plant response rating, Blackgrass: 90
[8]; Postemergence, 16 g ai/ha
  Plant response rating, Galium: 85
[8]; Postemergence, 31 g ai/ha
  Plant response rating, Galium: 97
[8]; Postemergence, 62 g ai/ha
  Plant response rating, Galium: 97
[8]; Postemergence, 125 g ai/ha
  Plant response rating, Galium: 98
[8]; Preemergence, 16 g ai/ha
  Plant response rating, Galium: 13
[8]; Preemergence, 31 g ai/ha
  Plant response rating, Galium: 82
[8]; Preemergence, 62 g ai/ha
  Plant response rating, Galium: 98
[8]; Preemergence, 125 g ai/ha
  Plant response rating, Galium: 100
Kochia (Kochia scoparia); Postemergence, 16 g ai/ha
  Plant response rating, Kochia: 35
Kochia (Kochia scoparia); Postemergence, 31 g ai/ha
  Plant response rating, Kochia: 50
Kochia (Kochia scoparia); Postemergence, 62 g ai/ha
  Plant response rating, Kochia: 75
Kochia (Kochia scoparia); Postemergence, 125 g ai/ha
  Plant response rating, Kochia: 90
Kochia (Kochia scoparia); Preemergence, 16 g ai/ha
  Plant response rating, Kochia: 12
Kochia (Kochia scoparia); Preemergence, 31 g ai/ha
  Plant response rating, Kochia: 22
Kochia (Kochia scoparia); Preemergence, 62 g ai/ha
  Plant response rating, Kochia: 72
Kochia (Kochia scoparia); Preemergence, 125 g ai/ha
  Plant response rating, Kochia: 93
oat, wild (Avena fatua); Postemergence, 16 g ai/ha
  Plant response rating, Oat, Wild: 92
oat, wild (Avena fatua); Postemergence, 31 g ai/ha
  Plant response rating, Oat, Wild: 92
oat, wild (Avena fatua); Postemergence, 62 g ai/ha
  Plant response rating, Oat, Wild: 96
oat, wild (Avena fatua); Postemergence, 125 g ai/ha
  Plant response rating, Oat, Wild: 99
oat, wild (Avena fatua); Preemergence, 16 g ai/ha
  Plant response rating, Oat, Wild: 28
oat, wild (Avena fatua); Preemergence, 31 g ai/ha
  Plant response rating, Oat, Wild: 80
oat, wild (Avena fatua); Preemergence, 62 g ai/ha
  Plant response rating, Oat, Wild: 83
oat, wild (Avena fatua); Preemergence, 125 g ai/ha
  Plant response rating, Oat, Wild: 97
[9]; Postemergence, 16 g ai/ha
  Plant response rating, Oilseed Rape: 85
[9]; Postemergence, 31 g ai/ha
  Plant response rating, Oilseed Rape: 87
[9]; Postemergence, 62 g ai/ha
  Plant response rating, Oilseed Rape: 90
[9]; Postemergence, 125 g ai/ha
  Plant response rating, Oilseed Rape: 100
[9]; Preemergence, 16 g ai/ha
  Plant response rating, Oilseed Rape: 0
[9]; Preemergence, 31 g ai/ha
  Plant response rating, Oilseed Rape: 18
[9]; Preemergence, 62 g ai/ha
  Plant response rating, Oilseed Rape: 85
[9]; Preemergence, 125 g ai/ha
  Plant response rating, Oilseed Rape: 100
[10]; Postemergence, 16 g ai/ha
  Plant response rating, Wheat, Spring: 90
[10]; Postemergence, 31 g ai/ha
  Plant response rating, Wheat, Spring: 93
[10]; Postemergence, 62 g ai/ha
  Plant response rating, Wheat, Spring: 93
[10]; Postemergence, 125 g ai/ha
  Plant response rating, Wheat, Spring: 93
[10]; Preemergence, 16 g ai/ha
  Plant response rating, Wheat, Spring: 63
[10]; Preemergence, 31 g ai/ha
  Plant response rating, Wheat, Spring: 78
[10]; Preemergence, 62 g ai/ha
  Plant response rating, Wheat, Spring: 90
[10]; Preemergence, 125 g ai/ha
  Plant response rating, Wheat, Spring: 100
[11]; Postemergence, 16 g ai/ha
  Plant response rating, Wheat, Winter: 85
[11]; Postemergence, 31 g ai/ha
  Plant response rating, Wheat, Winter: 90
[11]; Postemergence, 62 g ai/ha
  Plant response rating, Wheat, Winter: 90
[11]; Postemergence, 125 g ai/ha
  Plant response rating, Wheat, Winter: 92
[11]; Preemergence, 16 g ai/ha
  Plant response rating, Wheat, Winter: 23
[11]; Preemergence, 31 g ai/ha
  Plant response rating, Wheat, Winter: 67
[11]; Preemergence, 62 g ai/ha
  Plant response rating, Wheat, Winter: 80
[11]; Preemergence, 125 g ai/ha
  Plant response rating, Wheat, Winter: 93
